Measurements from patent publication US9289365B2, “Compositions and methods for stimulating collagen synthesis in the skin” (Avon Products, Inc., priority 2011, dated 2016).

Tested on: Human dermal fibroblasts
Assay: Stimulation of collagen synthesis in human dermal fibroblasts, procollagen type I C-peptide (PIP) EIA
Format: cell-based
Settings: compound at 0.0005% in DMSO, triplicate, 48-hour incubation; procollagen type I C-peptide in conditioned medium; increase in collagen over DMSO control
Method: The compounds 1-5, and 8-9 were assayed for stimulation of collagen synthesis as follows. Human dermal fibroblasts (Cascade Biologics, Portland, Oreg.) were plated at 10,000 cells/well in 96-well culture plates in supplemented medium (DMEM, 10% Fetal Bovine Serum, 1% Penicillin/Streptomycin and 1% L-Glutamine) overnight in humidified atmosphere of 10% CO2 at 37° C. The next day, the medium was replaced with fresh medium (DMEM, 1% Penicillin/Streptomycin and 1% L-Glutamine) and the compounds dissolved DMSO were added to the wells in triplicate at a concentration of 0.0005%, DMSO solution was used a control. Following 48-hour incubation, the plates were removed from the incubator and the medium from each well was collected for the procollagen assay.
Collagen production was measured using procollagen type I C-peptide (PIP) EIA kit (Takara Bio, Inc., Japan). Briefly, the conditioned medium was diluted 1:10 in Sample Diluent, 20 μl of diluted conditioned medium and 100 μl of antibody-POD conjugate solution were added to the wells of the Takara HASA plate. The ELISA plate was incubated at 37° C. for 3 hours before the wells were washed four times with 400 μl of 1×PBS. At the end of wash, 100 μl of substrate solution (supplied with kit) was added to the wells and incubated at room temperature for 15 minutes. The reaction was stopped by adding 100 μl of 1N sulfuric acid to the wells. The absorbance was measured on a spectrophotometer at 450 nm wavelength. The amount of procollagen peptide in the conditioned medium was calculated from the standard curve. The stimulation of collagen production was shown as an increase in collagen over the control.

With `Cc1ccccc1N1CCN(C(=O)c2cc(-c3cccn3C)nn2-c2ccccc2Cl)CC1` [Compound 9] the “% Collagen Stimulation” value was 62.2%.

`CCCc1c(C(=O)N2CCCC2)cnn1-c1ccccc1C` [Compound 5] was tested, and the “% Collagen Stimulation” value was 45.23%.

For `CCc1c(C(=O)N2CCCC2)cnn1-c1ccccc1Cl` [Compound 1], the “% Collagen Stimulation” value was 73.2%.

For `Cc1c(C(=O)N2CCCC2)cnn1-c1ccccc1` [Compound 4], the “% Collagen Stimulation” value was 12.5%.

For `Cc1ccccc1N1CCN(C(=O)c2cc(-c3ccccc3)nn2-c2ccc(Cl)c(Cl)c2)CC1` [Compound 8], the “% Collagen Stimulation” value was 83.7%.

`CCCc1c(C(=O)N2CCOCC2)cnn1-c1ccccc1Cl` [Compound 3] was tested, and the “% Collagen Stimulation” value was 13.5%.

In the case of `Cc1c(C(=O)N2CCCC2)c(CC(C)C)nn1-c1ccccc1` [Compound 2], the “% Collagen Stimulation” value is reported as 23.1%.
